{
  "source": "patent US12281329B2",
  "about": "“Compositions and methods for immune cell modulation in adoptive immunotherapies” (Fate Therapeutics, Inc., priority 2016, dated 2025)",
  "key": {"primary AML blasts": {"test_system": "primary AML blasts", "test": "NK cell cytotoxicity against primary AML blasts", "format": "cell-based, human", "details": "multi-day IL-15 + GSK3i NK cells vs overnight primed", "procedure": "(§1) NK Cell Cytotoxicity Assay: Cytotoxicity was determined using a flow cytometry based method based on a previously published method (Kim, et al. J Immunol Methods. 2007 Aug. 31; 325(1-2): 51-66). NK cells were co-cultured with e450-proliferation dye-labelled targets for 4 hours. CellEvent™ Caspase-3/7 Green Flow Cytometry Assay Kit (Lifer Technologies) was used to assay for cell death among target cells, and samples were read on a BD LSRFortessa cytometer. Killing of SKOV-3 targets was quantified using the Incucyte Zoom instrument. SKOV-3 cells were transiently transduced with NucLight-Red BacMam reagent (Essen Biosciences) and co-cultured with the indicated NK cell populations for 74 hours, with images taken on two hour intervals. Caspase 3/7 activity was monitored to indicate target cells undergoing apoptosis using the CellEvent™ Caspase-3/7 Green Detection Reagent. The number of target cells was normalized to SKOV-3 cells cultured alone, and targets undergoing apoptosis were quantified based on caspase 3/7 activity.\nCytotoxicity of CD3/CD19 depleted PBMC cultured multiple days with IL-15 and GSK3i (GSK3i modulated NK cells) versus overnight primed NK cells against primary AML blasts were also compared. Percent specific killing of primary AML blasts from multiple patients was measured by flow cytometry-based cytotoxicity assay."}, "NK cells [1]": {"test_system": "NK cells", "test": "NK cell culture with modified K562 feeder cells: proliferation and subtype skewing", "format": "cell-based, human", "details": "7 days", "description": "CD3/19 depleted PBMCs were cultured for 7 days with modified K562 feeder cells in the presence of DMSO (Vehicle), 0.1 uM GSK3i CHIR99021 alone (C), or a combination of 0.1 uM GSK3i CHIR99021, 40 nM MEKi PD0325901, and 1 nM Rapamycin (CPR)."}, "NK cells [2]": {"test_system": "NK cells", "test": "NK cell intracellular cytokine staining after IL-12+IL-18 or K562 stimulation", "format": "cell-based, human", "details": "7 days 10 ng/ml IL-15 + 5 uM CHIR99021; 4-hour IL12+IL18 or K562 stimulation; vs primed or 7 day IL15 only", "description": "NK Cell Intracellular Cytokine Staining: CD3/CD9 depleted PBMC were cultured for 7 days with 10 ng/ml IL-15 and 5 uM CHIR99021 or vehicle control. On culture day 7 cells were washed and cultured separately with IL-12 and IL-18 (long/ml and 50 ng/ml, respectively) (Life Technologies) or with K562 cells at a 1:1 ratio. Golgistop (BD Biosciences) was included in the culture media to facilitate intracellular detection of cytokines. After a 4 hour culture period, cells were stained for cell surface antigens and fixed prior to intracellular staining with antibodies to IFN-gamma and TNF-alpha (BD Biosciences). Staining was performed using the BD Cytofix/Cytoperm™ Kit according to the manufacturer's instructions.\nAlso analyzed was the effect of GSK3 inhibitor treatment to NK cell cytokine response. PBMC obtained directly from donors were cultured after CD3/CD9 depletion for 7 days with 10 ng/ml IL-15 and 5 uM CHIR99021, or with IL15 only. On day 7, cells were washed and cultured separately with IL-12 (long/ml) and IL-18 (50 ng/ml), or with K562 cells at a 1:1 ratio for stimulation. After a 4-hour culture period, cells were stained for cell surface antigens and fixed prior to intracellular staining with antibodies to IFNγ and TNFα, respectively."}, "NK cells [3]": {"test_system": "NK cells", "test": "Sorted NK cell populations (CD57/NKG2C) cultured with CHIR99021: maturation", "format": "cell-based, human", "details": "7 day", "procedure": "NK Cell Sorting: CD3/CD19 depleted PBMC were labelled with 10 uM e450 proliferation dye (eBioscience) and stained with FITC-conjugated anti-CD57, PE-Conjugated anti-NKG2C, APC-conjugated anti-CD56, and Percp-Cy5.5-conjugated anti-CD3 antibodies (BD Biosciences and R&D Systems). Four populations of CD3-CD56+NK cells were sorted according to the expression of CD57 and NKG2C; CD57+NKG2C−, CD57+NKG2C+, CD57-NKG2C+, and CD57-NKG2C−. Sorted NK cell populations were cultured at a 2:1 ratio of NK:monocytes in BO media with 10 ng/ml IL-15 and CHIR99021 or vehicle control. Stained but unsorted cells were cultured in parallel as a control.\nCD3/CD19 depleted PBMC were labelled with e450 proliferation dye, and CD56+CD3− NK cells were sorted in bulk or were sorted into 4 populations based on expression of CD57 and NKG2C expression (FIG. 5A). Total, unfractionated, NK cells were cultured alongside CD57+NKG2C− (Q1), CD57+NKG2C+(Q2), CD57−NKG2C+(Q3), CD57−NKG2C− (Q4) sorted NK cells with either (1) cytokine (10 ng/ml IL15) and 5 μM CHIR99021, or (2) cytokine only with vehicle control (for example, DMSO only) (FIG. 5B) with autologous CD14+ monocytes in a 1:1 ratio of NK cells:monocytes. After the 7 day culture period, cultures of each sorted population were stained for flow cytometry and analyzed for proliferation and cell surface marker expression. […]"}, "SKOV-3 cells": {"test_system": "SKOV-3 cells", "test": "In vivo tumor clearing of luciferase-expressing SKOV-3 cells by modulated NK cells with Herceptin", "set-up": "species or system NSG mice", "from_the_text": "In vivo tumor clearing using Modulated NK cells: NSG mice were irradiated with 300 rads one day prior to intraperitoneal transplant of 2×10^5 luciferase-expressing SKOV-3 cells. 5 days after transplant of the ovarian carcinoma cells, mice were either left untreated, treated with Herceptin only, or treated with Herceptin, IL-15, and NK cells cultured for 7 days with IL-15 and CHIR99021. Luciferase-expressing SKOV-3 cells were imaged on day 21 using the IVIS imaging system.\nMoreover, the in vivo tumor clearance ability of GSK3i cultured NK cells using the process provided herein was also tested. NSG mice were irradiated with 300 rads one day prior to intraperitoneal transplant of luciferase-expressing SKOV-3 cells. 5 days after the ovarian carcinoma cell transplant, the mice were either left untreated, treated with Herceptin only, or treated with Herceptin, IL-15, and NK cells cultured for 7 days with IL-15 and CHIR99021. […]\nThe in vivo tumor clearance ability of GSK3i cultured NK cells using the process provided herein was then compared to overnight primed CD3/CD19 depleted PBMC, and CD3/CD19 depleted PBMC cultured for 7 days with IL-15 and DMSO. […] Luciferase-expressing SKOV-3 cells were quantified by measuring luciferase activity using the IVIS imaging system."}, "HER2+ SKOV3 cells": {"test_system": "HER2+ SKOV3 cells", "test": "NK cell killing and Herceptin ADCC of SKOV3 cells", "format": "cell-based, human", "procedure": "as §1\nIn a similar fashion, SKOV3 cells were treated with NK cells derived from overnight culture with IL15, 7 day culture with IL15 and 7 day culture with IL15 and GSK3i. […]"}},
  "data": [
    {"smiles": "Cc1c[nH]c(-c2cnc(NCCNc3ccc(C#N)cn3)nc2-c2ccc(Cl)cc2Cl)n1", "note": "[CHIR99021]", "values": [
      {"measurement": "percent specific killing of primary AML blasts", "setting": "primary AML blasts", "result": "highly and consistently effective"},
      {"measurement": "proliferation of the activated NK cells overall", "setting": "NK cells [1]; K562 feeder modified to express IL21 and 41BBL, vs vehicle", "result": "increased"},
      {"measurement": "number of CD57+NK cells", "setting": "NK cells [1]; modified K562 feeder cells, vs vehicle control", "result": "highest"},
      {"measurement": "IFNγ production in NK cells", "setting": "NK cells [2]", "result": "enhanced"},
      {"measurement": "TNFα production in NK cells", "setting": "NK cells [2]", "result": "enhanced"},
      {"measurement": "expression of CD57 in Q3 and Q4 sorted cells (CD57− before culturing)", "setting": "NK cells [3]; 10 ng/ml IL15 + 5 μM CHIR99021", "result": "upregulated"},
      {"measurement": "CD57 expression in the total NK cells", "setting": "NK cells [3]; 10 ng/ml IL15 + 5 μM CHIR99021, unsorted", "result": "significant increase"},
      {"measurement": "in vivo SKOV-3 ADCC killing (luciferase activity)", "setting": "SKOV-3 cells; 100 ug Herceptin + 2.5×10^6 cells, vs overnight primed and 7 day IL-15 + DMSO", "result": "highly and consistently effective"},
      {"measurement": "tumor-suppressive effects of Herceptin antibody treatment", "setting": "SKOV-3 cells; NK cells cultured 7 days with IL-15 and CHIR99021, plus Herceptin and IL-15, imaged Day 21 post-transplant", "result": "enhances"},
      {"measurement": "killing of SKOV3 cells (killing rate and killing efficiency; elimination, caspase 3/7 peak)", "setting": "HER2+ SKOV3 cells; 7 day IL15 + GSK3i vs overnight IL15 and 7 day IL15", "result": "most effective"},
      {"measurement": "ADCC killing of SKOV3 with HER2 antibody (Herceptin)", "setting": "HER2+ SKOV3 cells; NK cells 7 days IL15 + GSK3i vs overnight IL15 and 7 day IL15", "result": "enhanced"}
    ]}
  ]
}
